{"source": "a melting point compilation (Tetko et al.; mined from patent text by program, amines drawn as free bases though some values may be those of a salt)"}
{"units": {"melting point": "°C"}}
{"smiles": "C[C@H](c1ccccc1)N1CCO[C@@H](c2ccc(Br)cc2)C1", "melting point": "85 to 87"}
{"smiles": "CCCCc1ccc(C(=O)NCCCCn2c(CCOC)nc3c(N)nc4ccccc4c32)nc1", "melting point": "54.9 to 55.2"}
{"smiles": "C[N+](C)([O-])c1ccc(/C=C/c2c(F)cccc2Cl)cc1", "melting point": "82 to 84"}
{"smiles": "Cn1nc(Br)c(Br)c1Br", "melting point": "85 to 86"}
{"smiles": "O=C(/C=C/c1c(-c2ccc(F)cc2)nc2sccn12)c1ccc2ccccc2c1", "melting point": "216 to 218"}
{"smiles": "c1ccc(CCCCNCCOc2cccc3[nH]ccc23)cc1", "melting point": "99 to 101"}
{"smiles": "CC(OCCc1ccc(-c2ccc(Cl)cc2)cc1)C(=O)O", "note": "(stereo not given)", "melting point": "90 to 92"}
{"smiles": "O=C([O-])C12CC[N+](Cc3ccc4c(c3)Nc3nccnc3S4)(CC1)CC2", "melting point": "229 to 230"}
{"smiles": "Cc1nc(NC(=O)c2ccco2)sc1C(=O)c1sc(NC(=O)c2ccco2)nc1C", "melting point": "198 to 199"}
{"smiles": "CC(CO)(CO)NCc1c2ccccc2cc2cc3ccccc3cc12", "melting point": "198 to 199"}
{"smiles": "CC(=O)Nc1cc(Cl)c(Cl)cc1NC(=O)Nc1cc(C(F)(F)F)ccc1Cl", "melting point": "262 to 264"}
{"smiles": "CN(C)S(=O)(=O)c1cccc(NC(=O)c2cnn3c(C(F)F)cc(-c4ccc(C(F)(F)F)cc4)nc23)c1", "melting point": 197}
{"smiles": "CC(C)(OCCOCc1nn(Cc2ccccc2)c2ccccc12)C(=O)O", "melting point": "94 to 95"}
{"smiles": "COc1ccc(S(=O)(=O)Nc2cc(Cl)ccc2/C=C/c2ccncc2)cc1", "melting point": "190 to 193"}
{"smiles": "CC(C)Cn1c(CN)c(-c2ccccc2)c2cc(OCC(N)=O)ccc2c1=O", "melting point": "161 to 163"}
{"smiles": "O=P(ONc1ccccc1)(ONc1ccccc1)Oc1ccccc1", "melting point": "176 to 178"}
{"smiles": "Nc1c(F)c(N2CCC(C(N)c3cccnc3)C2)c(F)c2c1c(=O)c(C(=O)O)cn2C1CC1F", "note": "(stereo not given)", "melting point": "123 to 126"}
{"smiles": "CCn1ncc2nc(C(=O)Nc3nccs3)c(-c3ccccc3)nc21", "melting point": "194 to 196"}
{"smiles": "COc1cc2c(cc1OC)C(C(S)(C#N)c1ccccc1C(=O)O)=NCC2", "note": "(stereo not given)", "melting point": "245 to 247"}
{"smiles": "COCC(=O)Nc1cc(NC(=O)COC)cc(C(=O)OC)c1", "melting point": "140 to 141"}
{"smiles": "CC(=O)NCc1ccn(-c2cc3c(cc2C(F)(F)F)[nH]c(=O)c(=O)n3CC(=O)O)c1", "melting point": "250 to 251"}
{"smiles": "CCOC(=O)C1=C(C)NC(C)=C(C(=O)OC)C1c1cccc2c(=O)c(C)c(-c3ccccc3)oc12", "note": "(stereo not given)", "melting point": "226 to 228"}
{"smiles": "N#CC(c1ccc(F)cc1)c1ccc(F)cc1", "melting point": "62 to 63.5"}
{"smiles": "CCCn1c(C)nn(-c2ccc([N+](=O)[O-])cc2)c1=O", "melting point": 125}
{"smiles": "O=C(C1CCCCC1)N1CCN2C(=O)c3ccccc3C2C1=O", "note": "(stereo not given)", "melting point": "167 to 172"}
{"smiles": "O=C1OCCN1CCN1CCN(C2Cc3ccc(Cl)cc3Sc3cc(F)ccc32)CC1", "note": "(stereo not given)", "melting point": "168 to 170"}
{"smiles": "CC(=O)Oc1ccc2c(c1)COc1c-2cc(Br)c2cc(OC(C)=O)ccc12", "melting point": "192 to 194"}
{"smiles": "Cc1cc2c(-c3ccccc3)c(C=O)n(C)c(=O)c2cc1C", "melting point": "178 to 179"}
{"smiles": "CCOC(=O)C1=C(C)NC(C(OCC)OCC)=C(C(=O)OCC)C1c1ccccc1Cl", "note": "(stereo not given)", "melting point": "75 to 77"}
{"smiles": "CC(=O)c1cccc2ccc(CC(=O)O)cc12", "melting point": "131 to 132"}
{"smiles": "CC1=CC(=C(C#N)C#N)C=C(C)S1(=O)=O", "melting point": "176 to 177"}
{"smiles": "CN(C)CCCNC(=O)c1ccc(-c2nnc(CSCCOc3ccc(Cl)cc3Cl)o2)cc1", "melting point": "140 to 141"}
{"smiles": "CC(COc1c(-c2ccccc2)c(=O)oc2c(Cl)cccc12)CN1CCOCC1", "note": "(stereo not given)", "melting point": "120 to 122"}
{"smiles": "COC(=O)C(NC(=O)c1cc2cc(Cl)ccc2[nH]1)C(C)c1ccccc1", "note": "(stereo not given)", "melting point": "135 to 136"}
{"smiles": "CN(C)CCNc1c2c(nc3ccccc13)CCCC2O", "note": "(stereo not given)", "melting point": "135 to 138"}
{"smiles": "O=CNC1=NN(c2ccccc2)C(c2ccc(Cl)cc2)C1", "note": "(stereo not given)", "melting point": "135 to 136"}
{"smiles": "O=C(C1CCCCC1)N(CCN1CCN(c2cccc3cccnc23)CC1)c1ccccc1OC(F)(F)F", "melting point": "142 to 143"}
{"smiles": "CCCCC1=C([N+](=O)[O-])C(c2cccc(Cl)c2Cl)c2c[nH]nc2N1", "note": "(stereo not given)", "melting point": 220}
{"smiles": "CC1COc2c(N3CCC(CN)C3)c(F)cc3c(=O)c(C(=O)O)cn1c23", "note": "(stereo not given)", "melting point": "213 to 216"}
{"smiles": "CC#CC(O)(C#CC)c1cc(-c2cccc(Cl)c2)ccc1N", "melting point": "112 to 114"}
{"smiles": "CNc1nc(C)c(C(=O)c2ccc(N)c([N+](=O)[O-])c2)s1", "melting point": "260 to 261"}
{"smiles": "CCc1cccc(C(C)C)c1N1C(=O)CN(CC)C1=S", "melting point": "77 to 79"}
{"smiles": "CCOC(=O)c1cc(OC(C)=O)c2c(OC)ccc(OC)c2c1", "melting point": "110 to 112"}
{"smiles": "COc1cc2ncnc(N3CCCc4ccccc43)c2cc1OC", "melting point": "130 to 131"}
{"smiles": "CN(C)c1nc(O)ns1", "melting point": 142}
{"smiles": "O=C1c2ccccc2C(O)(c2ccccc2)N1C1CCN(CCC(c2ccccc2)c2ccccc2)CC1", "note": "(stereo not given)", "melting point": "150 to 153"}
{"smiles": "COc1ccc(C(=O)Oc2ccc(S(N)(=O)=O)cc2)cc1C12CC3CC(CC(C3)C1)C2", "melting point": "223 to 224"}
{"smiles": "O=C1c2ccccc2-c2c1c1ccccc1c(=O)n2CCCCCCO", "melting point": "139 to 141"}
{"smiles": "CCC1CCc2c(sc3cc(N)ccc3c2=O)C1", "note": "(stereo not given)", "melting point": 187}
{"smiles": "CN1Cc2c(CO)ncn2-c2ccccc2C1=O", "melting point": "219 to 221"}
{"smiles": "CCCCCCCCCCCCCCCCCCOc1cccc(N)c1", "melting point": "77 to 78"}
{"smiles": "COC(=O)c1c(-c2cc3ccccc3o2)ccc2ccccc12", "melting point": "111 to 112"}
{"smiles": "CCOC=C(C(=O)O)C(=O)C1CC1", "melting point": "108 to 113"}
{"smiles": "COC(=O)CC(O)C(O)CC(=O)OC", "note": "(stereo not given)", "melting point": "80 to 81"}
{"smiles": "COc1c(CO)n(C)c(=O)c2ccc(Cl)cc12", "melting point": "195 to 196"}
{"smiles": "CC1=CC(C)(C)Nc2ccc(O)cc21", "melting point": "182 to 184"}
{"smiles": "N#Cc1cn(-c2ccccn2)nc1-c1ccc([N+](=O)[O-])o1", "melting point": "207 to 208"}
{"smiles": "O=C(O)C1=Cc2c(ccc3oc4ccccc4c23)OC1C(F)(F)F", "note": "(stereo not given)", "melting point": "254 to 255"}
{"smiles": "C#CCN1C(=O)c2ccccc2C1O", "note": "(stereo not given)", "melting point": "157 to 159"}
{"smiles": "CCS(=O)(=O)c1cc(OC)c(OC)c(C(=O)O)c1", "melting point": "138 to 139"}
{"smiles": "CCCCc1nc2c(N)nc3ccccc3c2n1CCCC(=O)c1ccccc1", "melting point": "178 to 180"}
{"smiles": "O=C(c1ccccc1)N1CCC(CN2CCc3c([nH]c4ccccc34)C2)CC1", "melting point": "162 to 164"}
{"smiles": "CCOC(=O)c1cc2ccc3oc4ccccc4c3c2n1C", "melting point": "114 to 116"}
{"smiles": "CN(C=CC(=Nc1ccccc1)Oc1ccccc1)c1ccccc1", "melting point": "130 to 132"}
{"smiles": "O=C(Nc1cc(C(F)(F)F)ccc1N1CCc2ccccc21)c1ccccc1F", "melting point": "127 to 130"}
{"smiles": "CC1(c2ccc(O)c([N+](=O)[O-])c2)C(=O)Nc2cc(Cl)cc(Cl)c2C1=O", "note": "(stereo not given)", "melting point": "239 to 240"}
{"smiles": "O=[N+]([O-])c1ccc(CN2CCC(O)CC2)cc1", "melting point": "114 to 115"}
{"smiles": "c1ccc(CSc2nc[nH]n2)cc1", "melting point": "79 to 80"}
{"smiles": "O=CC(=Cc1cccc(Cl)c1)C(C=O)=Cc1cccc(Cl)c1", "melting point": "107 to 108"}
{"smiles": "CC(=O)c1ccc(OCCCCCCOc2ccccc2)o1", "melting point": 80}
{"smiles": "O=C1c2ccccc2C(=O)N1C1CN(C(c2ccccc2)c2ccccc2)C1", "melting point": "118 to 120"}
{"smiles": "O=C1C(=O)c2ccccc2C2=C1SCC1(CCN(C(=O)c3nc4ccccc4[nH]3)CC1)O2", "melting point": "266 to 268"}
{"smiles": "Nc1ncc(Cl)c(CCl)c1Cl", "melting point": "124 to 126"}
{"smiles": "CC(C)(C)C(=O)Nc1ccc(F)cc1", "melting point": "124 to 125"}
{"smiles": "Cc1nc2ccnc(-c3ccccc3)n2n1", "melting point": "68 to 71"}
